The results in this text go back to patent US9663463B2, “3-azabicyclo[3.1.0]hexane derivative and use thereof for medical purpose” (priority 2013, dated 2017).

Data set [1] has as its target human μ-opioid receptor (Homo sapiens (Human), UniProt P35372). Nature of the data set: Antagonist activity test using [35S]-GTPγS bond as index using human μ-opioid receptor-expressing cell membrane. The class given is biochemical. Here is the method: Cells in which a human μ-opioid receptor had been highly expressed was purchased from ChanTest (Cleveland). The cells were cultured in a carbon dioxide gas culturing apparatus by using a Ham's F12 culture medium (Invitrogen) containing 10% of fetal bovine blood serum, 1% of non-essential amino acids, 0.4 mg/ml of G418, 100 U/ml of penicillin and 100 μg/ml of streptomycin. The cultured cells were suspended by using a 0.25% trypsin 1 mM EDTA solution, the suspension was collected by using phosphate-buffered saline and centrifuged at 4° C. and 1,000 rpm for 10 minute to remove the supernatant, whereby a cell mass was obtained. […] Similar homogenization and centrifugation operations were repeated on the sediment, a homogenized buffer was added again to the obtained sediment, and the resultant was similarly homogenized to give a membrane fraction solution. The obtained membrane fraction solution was dispensed, rapidly frozen and stored under freezing at −70° C. or less until use. Furthermore, the protein concentration of the obtained membrane fraction solution was measured by using a BCA protein Assay Kit (Cat. 23227, Pierce) according to the protocol attached to the kit.
The cell membrane fraction solution in which the human μ-opioid receptor had expressed, which had been stored under freezing, was melted, a GTP assay buffer (100 mM NaCl, 5 mM MgCl2, 1 mM EDTA-containing 50 mM Hepes (pH 7.4)) was added thereto, and the resultant was homogenized repeatedly twice by using a Polytron homogenizer (SMT Multi Disperser PB95) under ice cooling at 12,000 rpm for 20 seconds to give a homogeneous solution, and the homogeneous solution was diluted to 0.036 mg/ml with a GTP assay buffer containing 18.2 μM of GDP (final concentration: […]). The dilution was incubated for 15 minutes or more under ice cooling until the reaction was initiated. […] [^35S]-GTPγS (NEG030X, Perkinelmer) was diluted with a GTP assay buffer so as to be 0.616 nM (final concentration: 0.08 nM). The resultant was diluted with a GTP assay buffer so as to be 200 nM (final concentration: 10 nM) by using [D-Ala^2, N-Me-Phe^4, Gly^5-ol]-enkephalinacetate (DAMGO, Sigma) as a μ-opioid receptor agonist. WGA Coated PVT SPA Beads (RPNQ0001, Perkinelmer) were added so as to be 20 mg/ml with a GTP assay buffer, and the resultant was suspended (final concentration: 1 mg/well). 4 μL/well of a test substance solution, 10 μL/well of a DAMGO solution, 26 μL/well of a [^35S]-GTPγS solution, […] of a suspension liquid of WGA Coated PVT SPA Beads, and 110 μL/well of the membrane fraction solution were added to a 96 well plate (1450-401, Perkinelmer), the top part of the plate was sealed, and a reaction was performed at 30° C. for 60 minutes under stirring with a plate shaker. For each measurement plate, a well to which DMSO had been added instead of the test substance, and a well to which DMSO had been added instead of the test substance and a GTP assay buffer had been added instead of the DAMGO solution were prepared. Furthermore, after the reaction was completed, the reactant was centrifuged at room temperature and 1,000 rpm for 3 minutes, and the radioactivity was measured by a microplate scintillation luminescence counter (Perkinelmer).
The IC50 value of the test substance was calculated by using Graphpad Prism 5.
A general note: GTPγS is a poorly hydrolysed GTP analogue; its binding reports G protein activation.

Data set [2] in a line: Plasma concentration of test substance at ED50 value (mice, LC/MS/MS). The following applies: at the ED50 value, at time of morphine administration, oral, linear regression from two doses. The class given is in vivo. How it is done:
The concentration of the test substances in blood plasma was confirmed by using mice of the same week-old for the same dose as that used in the evaluation of the anti-pruritic effect. The test substance was administered by forced oral administration of an administration vehicle prepared in a similar manner to that in the evaluation of the anti-pruritic effect under a non-fasting condition. The blood samples were collected from the orbital venous plexus, within from 15 minutes after the administration of the test substance to after 180 minutes at the maximum, for multiple times including the timing at which the morphine solution was intracisternally administered, under inhalation anesthesia with diethyl ether or isoflurane using a heparin-treated hematocrit tubes. The collected blood samples were immediately ice-cooled and centrifuged at 1,800 g for 15 minutes at 4° C., and the plasma fractions were transferred and stored under freezing at −30° C. or less until measurement.
The concentrations of the test substances in plasma were measured using LC/MS/MS. Furthermore, as the measurement samples for LC/MS/MS, the supernatants obtained by adding an internal standard substance and acetonitrile in an amount within a range from 5-fold to 10-fold of the amount of the plasma to the collected plasma samples, and removing proteins therefrom, was used.

Data set [3] deals with hERG current (Homo sapiens (Human), UniProt Q12809). Nature of the data set: cell-based. The text has this: A: the suppression rate (%) of the test substance in each cell
B: the average suppression rate (%) of the vehicle control group

In data set [4] the test system is pruritus mice model to which morphine had been intracisternally administered. As to the kind of experiment: Anti-pruritic effect in pruritus mice model to which morphine had been intracisternally administered. The class given is in vivo. The settings on record: Mus musculus; oral administration, male ICR mice, inhibition of morphine-induced scratching behavior; read-out: ED50. How it is done:
As experimental animals, male ICR (Cr1j: CD1 (ICR): Charles River Japan) mice were used at 5 to 6-week old. The mice were placed in an acrylic cage (colorless and transparent, W 13.5 cm×D 9.5 cm×H 40 cm) for observing scratching behavior for 30 minutes or more to thereby allow the mice to get used to the observation environment, and the test substance solutions were forcedly orally administered to the test substance-administered groups. In addition, an administration vehicle was forcedly orally administered to the normal control group and the pathological control group. A necessary amount of the test substance was weighed and formed into a micropowder in an agate mortar, an administration vehicle, a 0.5 w/v % methyl cellulose 400 solution (Wako Pure Chemical Industries Ltd.) was added little by little, and preparation was performed by suspending or dissolving so as to give an intended concentration (from 0.025 to 3 mg/ml). The test doses were preset to suitable doses in the range in which the maximum dose is 30 mg/10 ml/kg.
Based on 30 minutes after the forced oral administration of the test substance as a criterion, the time for the intracisternal administration of morphine was suitably set up to 120 minutes after at the maximum, with consideration for the times of maximum plasma concentration of the respective test substances, in the case when the in vivo pharmacokinetics of the test substance had been confirmed in advance. Furthermore, saline was intracisternally administered to the normal control group, and the above-mentioned morphine solution was intracisternally administered to the pathogenic control group, so as to be 5 μL/site at the same time as that of the test substance group after the forced oral administration of the administration vehicle in either case.
The behavior of each mouse within 60 minutes from the intracisternal administration of the morphine solution or saline was recorded by a digital video camera that was installed immediately above the acrylic cage, the images were stored in a digital video recorder, and the number of frequency of the scratching behavior was measured. The number of frequency of the scratching behavior was measured with deeming a behavior in which the mouse raised its hindlimb, scratched the facial surface and the peripheral sites thereof, and got the hindlimb off from the body within 30 minutes from after the intracisternal administration of the morphine or saline as one time.
The anti-pruritic effect of each test substance was obtained as follows. As an inhibition ratio against the number of frequency of the scratching behavior on the pathological control group, the inhibition ratio (%) of the respective individuals and the average value thereof were calculated from the following formula, and an ED50 value was calculated based on the obtained inhibition ratio. Inhibition ratio of each individual (%)={1−(A−Vehicle)/(Morphine−Vehicle)}×100 Morphine: the average of the scratching number of the pathological control group Vehicle: the average of the scratching number of the normal control group A: the scratching number of each individual in the test substance-administered group

The target in data set [5] is hERG (Homo sapiens (Human), UniProt Q12809). Nature of the data set: Safety margin against hERG inhibitory activity. The following applies: hERG IC50×1000/{concentration in plasma at ED50×(1−protein binding rate/100)}. Here is the method:
In order to compare the risks of extension of QT interval prolongation in the electrocardiogram among the test substances, the safety margins against the hERG inhibitory effect were calculated. […] Therefore, the following formula was used for calculating the safety margin, and the obtained values were described in Table 7. Safety margin against hERG inhibitory effect=IC50×1000/{concentration in plasma×(1−protein binding rate/100)}
IC50: the IC50 value in a hERG inhibition assay (μM)
Plasma concentration: the plasma concentration of test substance (nM) at the ED50 value in the test for evaluating the anti-pruritic effect in the morphine model
Protein binding rate: the protein binding rate (%) in the protein binding assay in murine serum

A short description of data set [6]: in vitro. In kind it is in vitro ADME, mice. The settings on record: Crl:CD-1 (ICR), mouse, pH 7.4; murine serum, equilibrium dialysis, 37° C., 5 to 6 hours; read-out: Protein binding rate (converted). How it is done:
The protein binding rate was determined by equilibrium dialysis method using the RED Device (8K MWCO, Rapid Equilibrium Dialysis Device, Thermo Scientific). The test substances that had been dissolved in DMSO were added to the serum that was collected from Crl: CD-1 (ICR) mice fasted overnight, so that the final concentration of DMSO became 1% (v/v). The serum to which the test substance had been added was added to the inner side of the dialysis membrane of the RED Device, and PBS (phosphate buffer saline, pH 7.4) containing 0.01% (v/v) Tween 80 was added to the outside in accordance with the method for using the RED Device and incubated at 37° C. for 5 to 6 hours with ellipsoidal shaking at 100 rpm so that the concentration of the unbound test substance in the serum and the concentration of the test substance in the PBS reached equilibrium. After the incubation was completed, the respective solutions were collected and stored under freezing at −60° C. or less as measurement samples. The proteins were removed from the measurement sample by adding acetonitrile in an amount of 5-fold or more of the amount of the internal standard substance and the serum sample, and the supernatants were measured by LC/MS/MS (liquid chromatograph—triple quadrupole mass spectrometer). The serum samples were measured after suitably diluting with distilled water as necessary.
A: the concentration of the test substance in the PBS sample
B: the concentration of the test substance in the serum sample
A general note: In equilibrium dialysis only unbound substance equilibrates across the membrane.

Where a name gives a salt, the structure may show the parent alone.

Chain of hERG current (Q12809 whole entry): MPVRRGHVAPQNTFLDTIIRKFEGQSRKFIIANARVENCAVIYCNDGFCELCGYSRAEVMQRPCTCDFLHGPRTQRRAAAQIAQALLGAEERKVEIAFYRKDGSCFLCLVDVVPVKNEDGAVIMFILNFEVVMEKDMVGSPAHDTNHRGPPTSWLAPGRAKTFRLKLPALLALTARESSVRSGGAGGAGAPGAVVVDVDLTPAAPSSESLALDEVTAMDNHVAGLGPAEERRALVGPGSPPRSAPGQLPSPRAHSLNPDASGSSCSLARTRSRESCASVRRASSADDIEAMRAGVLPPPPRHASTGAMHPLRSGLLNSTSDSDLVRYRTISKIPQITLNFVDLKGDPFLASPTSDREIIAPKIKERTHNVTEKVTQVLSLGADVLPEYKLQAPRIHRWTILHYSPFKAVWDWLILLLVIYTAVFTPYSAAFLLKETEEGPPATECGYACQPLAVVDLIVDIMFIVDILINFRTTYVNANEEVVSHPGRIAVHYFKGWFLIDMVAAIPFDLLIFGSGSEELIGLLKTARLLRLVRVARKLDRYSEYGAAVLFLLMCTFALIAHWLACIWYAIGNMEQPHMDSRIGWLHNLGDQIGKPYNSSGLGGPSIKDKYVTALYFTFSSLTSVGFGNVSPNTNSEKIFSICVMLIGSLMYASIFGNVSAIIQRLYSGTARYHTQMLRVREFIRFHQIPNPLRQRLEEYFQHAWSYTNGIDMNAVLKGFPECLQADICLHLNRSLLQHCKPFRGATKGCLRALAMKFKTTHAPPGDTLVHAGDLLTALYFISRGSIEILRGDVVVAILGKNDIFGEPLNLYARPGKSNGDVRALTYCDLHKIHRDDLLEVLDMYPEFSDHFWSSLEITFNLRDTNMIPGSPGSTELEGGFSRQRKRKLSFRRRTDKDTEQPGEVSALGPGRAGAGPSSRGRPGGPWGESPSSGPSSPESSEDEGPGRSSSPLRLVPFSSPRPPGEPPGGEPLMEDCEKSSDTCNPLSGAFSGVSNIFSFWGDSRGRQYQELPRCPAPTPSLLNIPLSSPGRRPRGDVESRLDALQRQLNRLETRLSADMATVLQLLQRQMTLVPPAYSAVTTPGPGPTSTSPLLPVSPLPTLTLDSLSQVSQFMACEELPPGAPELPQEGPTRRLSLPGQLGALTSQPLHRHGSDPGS

Take `C[C@]1(c2cccc(NS(=O)(=O)C3CC3)c2)[C@@H]2CN(CC3(O)Cc4ccccc4C3)C[C@@H]21` [Example 17-(b), N-(3-{(1R,5S,6r)-3-[(2-hydroxy-2,3-dihydro-1H-inden-2-yl)methyl]-6-methyl-3-azabicyclo[3.1.0]hexan-6-yl}phenyl)cyclopropanesulfonamide hydrochloride]: the IC50 (commonly the point on the concentration scale where inhibition reaches its midpoint) worked out at 5.4 nM in data set [1] and 130 nM in data set [3]. For the same molecule, the “Plasma concentration of test substance” value in data set [2] is 68.2 nM. In addition, the 50% effective dose (ED50) (as a rule, the midpoint of the dose-response relation) in data set [4] was determined as 1.5 mg/kg. The same molecule had a Safety margin in data set [5] of 48.

For the molecule `CC[C@]1(c2cccc(NS(=O)(=O)C3CC3)c2)[C@@H]2CN(CCCN3CCC(F)(F)CC3)C[C@@H]21` [Example 7-(b), N-(3-{(1R,5S,6r)-3-[3-(4,4-difluoropiperidin-1-yl)propyl]-6-ethyl-3-azabicyclo[3.1.0]hexan-6-yl}phenyl)cyclopropanesulfonamide hydrochloride], the concentration for half-maximal inhibition (IC50) in data set [1] was found to be 1.4 nM; in data set [3], 1200 nM. Further, in data set [2], the “Plasma concentration of test substance” value was determined as 21.5 nM. Also, the ED50 in data set [4] came to 2.4 mg/kg. This molecule displayed a Safety margin in data set [5] of 375.

On to `CC[C@]1(c2cccc(NS(=O)(=O)C3CC3)c2)[C@@H]2CN(CC3(O)Cc4ccccc4C3)C[C@@H]21` [Example 1-(a), N-(3-{(1R,5S,6r)-6-ethyl-3-[(2-hydroxy-2,3-dihydro-1H-inden-2-yl)methyl]-3-azabicyclo[3.1.0]hexan-6-yl}phenyl)cyclopropanesulfonamide], for which, in data set [2], the “Plasma concentration of test substance” value is 70.8 nM. In data set [3], this molecule yielded an IC50 of 110 nM. Also, the ED50 in data set [4] amounted to 3.5 mg/kg. The Safety margin in data set [5] was 82. Besides, the fraction unbound in data set [6] was 0.019.

`CC[C@]1(c2cccc(NS(=O)(=O)C3CC3)c2)[C@@H]2CN(CC3(OC)Cc4ccccc4C3)C[C@@H]21` [Example 3-(b), N-(3-{(1R,5S,6r)-6-ethyl-3-[(2-methoxy-2,3-dihydro-1H-inden-2-yl)methyl]-3-azabicyclo[3.1.0]hexan-6-yl}phenyl)cyclopropanesulfonamide hydrochloride]: the IC50 in data set [1] was found to be 3.6 nM; in data set [3], 580 nM. For the same molecule, the “Plasma concentration of test substance” value in data set [2] was 48.8 nM. The ED50 in data set [4] was 4.2 mg/kg. Further, the Safety margin in data set [5] came to 1980.

The molecule `CC[C@]1(c2cccc(NS(=O)(=O)C3CC3)c2)[C@@H]2CN(CCCC3(OC)CCC(F)(F)CC3)C[C@@H]21` [Example 6-(b), N-(3-{(1R,5S,6r)-3-[3-(4,4-difluoro-1-methoxycyclohexyl)propyl]-6-ethyl-3-azabicyclo[3.1.0]hexan-6-yl}phenyl)cyclopropanesulfonamide hydrochloride] gave a 50% inhibitory concentration (IC50) in data set [3] of 660 nM. For the same molecule, the ED50 in data set [4] was determined as 0.42 mg/kg. In data set [6], the fraction unbound was 0.039.
